A word on the EC50: it is the concentration at which the effect is half-maximal. What is called Emax is the maximal effect, on the per cent scale that the assay sets.

Like-named read-outs stand apart in the source and are kept apart here.

The values below come from patent US10899699B2, “Vinylogous phenethylamines as neurotransmitter releasers” (RESEARCH TRIANGLE INSTITUTE, priority 2016, dated 2021).

Data set [1] addresses Norepinephrine Transporter (NET) (Rattus norvegicus, UniProt Q9WTR4). It counts as biochemical. The note with it: read-out: EC50, (nM ± SD) NET; release of [3H]MPP+ from rat brain synaptosomes; mean±SD (n=3).
For data set [2], the system named is Norepinephrine Transporter (NET). The format is biochemical, rat.
Data set [3] deals with T1, 5-HT2B (Homo sapiens, UniProt P41595).
T1 construct: expressed in transfected cells
Kind of data set: 5-HT2B calcium mobilization assay in HEK293 cells (agonist activity). It counts as cell-based. The protocol:
(§1) BAT activity was measured using synaptosomes prepared from rat brain homogenates according to the protocol developed by Rothman and co-workers (Rothman, et al., Eur. J. Pharmacol. 2002, 447(1), 51). Compounds were first screened in uptake inhibition and release assays to determine the exact mode of drug action. Compounds active in both assays are releasers while compounds active only in the uptake inhibition assay are uptake inhibitors. Active compounds were then fully characterized by running 8-point concentration response curves in the assay corresponding to their mechanism of action. Substrate reversal experiments were conducted to validate substrate activity. The analogs were also tested for agonist activity at the serotonin-2 receptor subtypes (5-HT2A, 5-HT2B, 5-HT2C) using in vitro calcium mobilization assays in transfected HEK293 cells as previously described. These receptors are associated with the pharmacology of abused drugs, as 5-HT2A agonists are thought to be hallucinogenic while […] are associated with valvular heart disease and pulmonary hypertension; activity at these receptors would be considered off-target liabilities. On the other hand, agonists at 5-HT2C may be beneficial as potential pharmacotherapies for drug abuse and appetite suppression.
(§2) HEK293 cells stably expressing the human 5-HT2A receptor were used. The day before the assay, cells were plated into 96-well black-walled assay plates at 40,000 cells/well in DMEM-HG supplemented with 10% fetal bovine serum, 100 units of penicillin and streptomycin, and 15 mM HEPES. The cells were incubated overnight at 37° C., 5% CO2. Prior to the assay, Calcium 5 dye (Molecular Devices) was reconstituted according to the manufacturer instructions. The reconstituted dye was diluted 1:40 in pre-warmed (37° C.) assay buffer (1×HBSS, 20 mM HEPES, 2.5 mM probenecid, pH 7.4 at 37° C.). Growth medium was removed and the cells were gently washed with 100 μL of pre-warmed (37° C.) assay buffer. The cells were incubated for 45 minutes at 37° C., 5% CO2 in 200 μL of the diluted Calcium 5 dye. Serial dilutions of the test compounds were prepared in 1% DMSO/assay buffer, aliquoted into 96-well polypropylene plates, and warmed to 37° C. After the dye-loading incubation period, the cells were pre-treated with 25 μL of 9% DMSO/assay buffer and incubated for 15 min at 37° C. After the pre-treatment incubation period, the plate was read with a FlexStation® II (Molecular Devices). Calcium-mediated changes in fluorescence were monitored every 1.52 seconds over a 60 second time period, with the FlexStation® II adding 25 μL of test compound dilutions at the 19 second time point (excitation at 485 nm, detection at 525 nm). Peak kinetic reduction (SoftMax, Molecular Devices) relative fluorescent units (RFU) were plotted against compound concentration. Data were fit to the appropriate three-parameter logistic curve to generate EC50 values (GraphPad Prism 6.0, GraphPad Software, Inc., San Diego, Calif.). 5-HT2B and 5-HT2C calcium mobilization assays were run in the same manner with stable 5-HT2B and 5-HT2C HEK293 cells except that 35,000 cells/well were used instead of 40,000 cells/well.
A general note: Calcium assays in cells follow changes in intracellular calcium, usually with a dye or a luminescent sensor.

Data set [4] has as its target T2, Serotonin Transporter (SERT) (Rattus norvegicus, UniProt P31652).
T2 construct: synaptosomes were prepared from whole brain minus striatum and cerebellum for the NET and SERT assays; from tissue; host or cells: rat whole brain minus striatum and cerebellum, synaptosomes
Kind of data set: SERT release assay, rat brain synaptosomes. The format is biochemical. The following applies: for EC50: release of [3H]5-HT from rat brain synaptosomes, mean±SD (n=3). Here is the method: as §1, with “Compounds active in both assays are releasers while compounds active only in the uptake inhibition assay are uptake inhibitors. Active compounds were then fully characterized by running 8-point concentration response curves in the assay corresponding to their mechanism of action.” left out
(§3) All animal studies were conducted in facilities fully accredited by the Association for the Assessment and Accreditation of Laboratory Animal Care (AAALAC) and experiments were performed in accordance with the Institutional Care and Use Committee (IACUC) of the National Institute on Drug Abuse Intramural Research Program (NIDA IRP). Rats were euthanized by CO2 narcosis, and brains were processed to yield synaptosomes as previously described (Rothman, R B, et al., Eur. J. Pharmacol. 2002, 447(1), 51.). Synaptosomes were prepared from rat striatum for the DAT assays, whereas synaptosomes were prepared from whole brain minus striatum and cerebellum for the NET and SERT assays.
(§4) For release assays, 9 nM [^3H]1-methyl-4-phenylpyridinium ([^3H]MPP+) was used as the radiolabeled substrate for DAT and NET, while 5 nM [^3H]5-HT was used as a substrate for SERT. All buffers used in the release assay methods contained 1 μM reserpine to block vesicular uptake of substrates. The selectivity of release assays was optimized for a single transporter by including unlabeled blockers to prevent the uptake of [^3H]MPP+ or [^3H]5-HT by competing transporters. Synaptosomes were preloaded with radiolabeled substrate in Krebs-phosphate buffer for 1 h (steady state). Release assays were initiated by adding 850 μL of preloaded synaptosomes to 150 μL of test drug. Release was terminated by vacuum filtration and retained radioactivity was quantified as described for uptake inhibition. Concentration-response curves were generated to yield EC50 values.
(§5) Substrate reversal experiments were conducted to validate substrate activity. The releasing ability of test compounds was tested at an EC80 concentration in the absence and presence of an uptake inhibitor (250 nM […] for DAT, 166 nM desipramine for NET, 100 nM fluoxetine for SERT).

The target in data set [5] is T3, 5-HT2C (Homo sapiens, UniProt P28335).
T3 construct: expressed in transfected cells
T3 sequence (P28335 33-458): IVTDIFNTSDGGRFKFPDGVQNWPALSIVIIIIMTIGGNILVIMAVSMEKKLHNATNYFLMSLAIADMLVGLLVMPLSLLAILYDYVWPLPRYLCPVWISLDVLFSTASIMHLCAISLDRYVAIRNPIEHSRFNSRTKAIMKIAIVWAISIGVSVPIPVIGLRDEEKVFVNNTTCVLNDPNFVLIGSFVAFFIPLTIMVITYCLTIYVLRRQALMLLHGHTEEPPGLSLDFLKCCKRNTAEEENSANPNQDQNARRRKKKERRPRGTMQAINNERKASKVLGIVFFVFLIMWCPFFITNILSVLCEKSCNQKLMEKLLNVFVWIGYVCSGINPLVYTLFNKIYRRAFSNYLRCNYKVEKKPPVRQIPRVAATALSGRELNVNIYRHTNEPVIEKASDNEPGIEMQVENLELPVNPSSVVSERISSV
Kind of data set: 5-HT2C calcium mobilization assay in HEK293 cells (agonist activity). The format is cell-based. The protocol: as §1, §2

Data set [6] has as its target T4, Dopamine Transporter (DAT) (Rattus norvegicus, UniProt P23977).
T4 construct: Synaptosomes were prepared from rat striatum for the DAT assays; from tissue; host or cells: rat striatum synaptosomes
Kind of data set: DAT release assay, rat brain synaptosomes. It counts as biochemical. The note with it: for EC50: release of [3H]MPP+ from rat striatum synaptosomes, mean±SD (n=3). Here is the method: as §1, with “Compounds active in both assays are releasers while compounds active only in the uptake inhibition assay are uptake inhibitors. Active compounds were then fully characterized by running 8-point concentration response curves in the assay corresponding to their mechanism of action.” left out
as §3, §4, §5

Data set [7] addresses T5, human 5-HT2A receptor (Homo sapiens, UniProt P28223).
T5 construct: expressed in transfected cells
Kind of data set: 5-HT2A calcium mobilization assay in HEK293 cells (agonist activity). It counts as cell-based. The following applies: for Emax: efficacy. Here is the method: as §1, §2

The conditions of data set [8]: rhesus monkeys, chronic treatment; progressive-ratio, choice, second-order schedules; cited from earlier work.
For data set [9] the following is noted: double-blind, placebo-controlled clinical trial; cited from earlier work.
Data set [10] has as its system cortical 5-HT. The note with it: high doses; cited from earlier work.
For data set [11] the following is noted: abstinent cocaine-dependent patients; cited from earlier work.
The conditions of data set [12]: rats; cited from earlier work.
Setting [13] is: calcium mobilization, agonist, HEK293, read-out: 5-HT2B EC50, (nM ± SEM).
[14] abbreviates: calcium mobilization, agonist, HEK293, read-out: 5-HT2C EC50, (nM ± SEM).
Where [15] appears, read: calcium mobilization, agonist, HEK293, read-out: 5-HT2A EC50, (nM ± SEM).
Where [16] appears, read: calcium mobilization, agonist, HEK293.

T2 sequence (P31652 whole entry): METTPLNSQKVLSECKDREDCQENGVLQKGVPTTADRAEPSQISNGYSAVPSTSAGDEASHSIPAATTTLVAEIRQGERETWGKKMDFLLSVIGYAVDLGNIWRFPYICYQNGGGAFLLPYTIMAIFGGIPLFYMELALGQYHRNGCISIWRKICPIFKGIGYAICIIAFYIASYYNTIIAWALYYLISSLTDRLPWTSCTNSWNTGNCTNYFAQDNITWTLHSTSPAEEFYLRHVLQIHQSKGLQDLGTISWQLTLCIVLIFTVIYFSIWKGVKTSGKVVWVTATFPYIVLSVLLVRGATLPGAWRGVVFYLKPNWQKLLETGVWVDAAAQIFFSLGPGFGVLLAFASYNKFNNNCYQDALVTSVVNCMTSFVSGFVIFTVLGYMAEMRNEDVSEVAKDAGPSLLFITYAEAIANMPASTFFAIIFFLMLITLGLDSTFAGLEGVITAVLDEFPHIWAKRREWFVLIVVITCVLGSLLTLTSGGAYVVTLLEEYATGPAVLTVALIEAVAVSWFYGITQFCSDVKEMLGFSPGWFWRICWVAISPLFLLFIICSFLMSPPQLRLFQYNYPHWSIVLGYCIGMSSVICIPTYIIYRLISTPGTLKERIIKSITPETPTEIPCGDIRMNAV
T5 sequence (P28223 whole entry): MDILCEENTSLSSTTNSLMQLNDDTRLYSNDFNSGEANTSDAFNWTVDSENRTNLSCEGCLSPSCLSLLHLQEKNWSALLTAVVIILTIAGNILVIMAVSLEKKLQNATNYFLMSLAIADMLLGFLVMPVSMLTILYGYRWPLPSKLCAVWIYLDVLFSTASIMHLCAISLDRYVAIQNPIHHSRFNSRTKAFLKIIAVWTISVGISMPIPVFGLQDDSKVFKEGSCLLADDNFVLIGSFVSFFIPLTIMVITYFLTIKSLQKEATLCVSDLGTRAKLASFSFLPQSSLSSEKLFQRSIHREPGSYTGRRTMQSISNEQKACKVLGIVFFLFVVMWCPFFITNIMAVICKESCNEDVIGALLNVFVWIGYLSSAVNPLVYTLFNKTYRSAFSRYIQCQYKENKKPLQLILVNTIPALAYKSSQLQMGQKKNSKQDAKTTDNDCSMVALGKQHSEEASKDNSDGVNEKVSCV
T1 sequence (P41595 whole entry): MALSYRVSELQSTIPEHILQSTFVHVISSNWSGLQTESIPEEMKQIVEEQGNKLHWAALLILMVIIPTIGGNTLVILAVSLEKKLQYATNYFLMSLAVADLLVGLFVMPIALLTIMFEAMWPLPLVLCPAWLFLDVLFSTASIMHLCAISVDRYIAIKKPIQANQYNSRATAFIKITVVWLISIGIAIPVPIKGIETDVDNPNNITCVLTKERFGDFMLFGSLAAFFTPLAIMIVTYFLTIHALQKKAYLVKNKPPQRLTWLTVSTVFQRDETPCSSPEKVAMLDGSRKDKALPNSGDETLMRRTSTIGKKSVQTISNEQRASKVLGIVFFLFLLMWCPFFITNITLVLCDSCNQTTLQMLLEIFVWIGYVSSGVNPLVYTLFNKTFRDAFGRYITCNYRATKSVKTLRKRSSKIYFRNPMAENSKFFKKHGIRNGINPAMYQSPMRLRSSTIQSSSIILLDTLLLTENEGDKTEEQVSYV
T4 sequence (P23977 whole entry): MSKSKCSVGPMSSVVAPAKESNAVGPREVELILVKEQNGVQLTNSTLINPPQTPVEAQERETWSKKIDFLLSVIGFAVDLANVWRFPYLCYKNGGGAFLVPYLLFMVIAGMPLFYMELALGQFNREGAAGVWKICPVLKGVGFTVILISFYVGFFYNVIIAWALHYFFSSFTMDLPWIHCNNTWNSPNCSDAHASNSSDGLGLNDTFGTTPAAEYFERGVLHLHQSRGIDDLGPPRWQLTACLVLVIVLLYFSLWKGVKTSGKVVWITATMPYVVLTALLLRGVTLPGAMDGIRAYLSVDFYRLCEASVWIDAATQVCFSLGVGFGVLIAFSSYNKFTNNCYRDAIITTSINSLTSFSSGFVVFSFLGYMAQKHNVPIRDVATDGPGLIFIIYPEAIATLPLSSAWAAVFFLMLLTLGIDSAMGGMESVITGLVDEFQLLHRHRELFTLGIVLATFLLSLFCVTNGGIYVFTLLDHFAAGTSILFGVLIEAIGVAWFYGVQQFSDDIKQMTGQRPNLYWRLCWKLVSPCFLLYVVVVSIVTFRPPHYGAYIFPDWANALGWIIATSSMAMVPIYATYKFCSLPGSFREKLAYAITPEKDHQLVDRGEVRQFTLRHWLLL

`C[C@@H](N)C/C=C\c1ccccc1` [R-8, (1R,3Z)-1-Methyl-4-phenyl-but-3-enylamine]: the EC50 in data set [1] was 211 nM; in data set [3] (setting [13]), greater than 10000 nM; in data set [4], 1160 ± 160 nM; in data set [5] (setting [14]), greater than 10000 nM; in data set [6] it was 1420 nM; in [7] (setting [15]), greater than 10000 nM. Besides, in data set [7] (calcium mobilization, read-out: 5-HT2A EC50), the EC50 is greater than 10000 nM. Further, the “selectivity for releasing NE relative to DA (NET compared to DAT)” value in data set [2] was found to be 6.7 fold. For the same molecule, the “potency for releasing 5-HT relative to DA (SERT/DAT selectivity)” value in data set [4] was found to be 1.2 fold.
As to `C[C@H](N)CC#Cc1ccccc1` [S-4, (1S)-1-Methyl-4-phenyl-but-3-ynylamine], the EC50 in data set [1] is 784 ± 190 nM; in data set [3] (setting [13]), greater than 10000 nM; in data set [4] it was 756 ± 79 nM; in data set [5] (setting [14]) it was greater than 10000 nM; in [6] it was 443 nM; in data set [7] (setting [15]), 4950 ± 1400 nM. Also, in data set [4], the “potency for releasing 5-HT relative to DA (SERT/DAT selectivity)” value is recorded as “essentially equipotent”. Also, the “fold reduction in potency at 5-HT2A compared to 8” value in data set [7] is on record as 2.7 fold. Moreover, the Emax in data set [7] (HEK293, calcium mobilization) was roughly 80%.
Take `C[C@H](N)C/C=C/c1ccccc1` [S-6, (1S,3E)-1-Methyl-4-phenyl-but-3-enylamine]: the EC50 in data set [1] was 138 nM; in [3] (setting [13]) it was greater than 10000 nM; in [4], 40 nM; in data set [5] (setting [14]), greater than 10000 nM; in data set [6] it was 206 nM; in data set [7] (setting [15]), greater than 10000 nM. Besides, the “5-HT2B EC50, (nM ± SEM)” value in [3] (setting [16]) was “inactive”. The “potency for 5-HT release compared to NE release” value in data set [4] is 3.5 fold. Also, the “potency for releasing 5-HT relative to DA (SERT/DAT selectivity)” value in [4] is 5 fold. For the same molecule, in [5] (setting [16]), the “5-HT2C EC50, (nM ± SEM)” value is “inactive”. The “potency at releasing DA compared to NE” value in data set [6] is “almost equal”. Further, the “5-HT2A EC50, (nM ± SEM)” value in data set [7] (setting [16]) is “inactive”.
`C[C@H](N)C/C=C\c1ccccc1` [S-8, (1S,3Z)-1-Methyl-4-phenyl-but-3-enylamine]: the EC50 in data set [1] was 170 nM; in [3] (setting [13]), greater than 10000 nM; in [4], 863 ± 86 nM; in data set [6] it was 304 nM; in [7] (setting [15]), 1600 nM. Further, the Emax at 10 µM in data set [5] (HEK293, at 10 μM, read-out: 5-HT2C activity relative to the control 5-HT EMAX) is less than 50%. In addition, the “potency for releasing DA relative to 5-HT” value in [6] is 2.2 fold. Also, the maximal effect (Emax) in data set [7] (HEK293, calcium mobilization) worked out at 102%.
In the case of `C[C@H](N)Cc1ccccc1` [compound 1, S(+)-amphetamine, reference compound], the EC50 in [3], in data set [5] and in data set [7] was greater than 10000 nM in each case. Further, the “5-HT2B EC50, (nM ± SEM)” value in data set [3] (setting [16]) is “inactive”. For the same molecule, the “cocaine self-administration compared to food-maintained responding” value in data set [8] is recorded as “selective dose-dependent decrease in cocaine self-administration”. For the same molecule, the “5-HT2C EC50, (nM ± SEM)” value in data set [5] (setting [16]) is “inactive”. Besides, the “5-HT2A EC50, (nM ± SEM)” value in [7] (setting [16]) is “inactive”. Besides, the cocaine use result in data set [9] was “decrease in cocaine use”.
Regarding `CC(N)Cc1ccc2ccccc2c1` (stereo not drawn) [compound 2], in data set [10], the “depletion of cortical 5-HT” value is recorded as “do not cause depletion of cortical 5-HT”.
With `CC(N)/C=C/c1ccccc1` (stereo not drawn) [compound 10, (2E)-1-Methyl-3-phenyl-prop-2-enylamine], the concentration giving a half-maximal response (EC50) in [1] was 308 ± 100 nM; in data set [3] (setting [13]), greater than 10000 nM; in data set [5] (setting [14]) it was greater than 10000 nM; in data set [6] it was 666 nM; in [7] (setting [15]), greater than 10000 nM. Besides, the “selectivity for releasing NE relative to DA (NET compared to DAT)” value in [2] was 2.2 fold. The “5-HT2A EC50, (nM ± SEM)” value in [7] (setting [16]) is “inactive”.
For the molecule `CC(N)/C=C\c1ccccc1` (stereo not drawn) [compound 11, (2Z)-1-Methyl-3-phenyl-prop-2-enylamine], the EC50 in data set [1] is 301 ± 76 nM; in data set [3] (setting [13]), greater than 10000 nM; in data set [5] (setting [14]) it was greater than 10000 nM; in [6], 1110 ± 150 nM; in data set [7] (setting [15]), greater than 10000 nM. The “selectivity for releasing NE relative to DA (NET compared to DAT)” value in [2] came out at 3.7 fold. Also, the “5-HT2A EC50, (nM ± SEM)” value in [7] (setting [16]) is “inactive”.
In the case of `CCNC(C)Cc1cccc(C(F)(F)F)c1` (stereo not drawn) [fenfluramine], in [11], the cocaine craving result is given as “significantly reduces cocaine craving”. In addition, the cue-reinstated cocaine-seeking behavior result in data set [12] is listed as “dose-dependently attenuates cue-reinstated cocaine-seeking behavior”.
